Reference: publication PMC8956739, “A synthetic lipopeptide targeting top-priority multidrug-resistant Gram-negative pathogens” (Nature Communications, 2022)
Values joined by “and” are separate entries in the source; they are usually repeats but may differ in a detail not shown here. Identical values can stand only once. Residues, ends and D or L forms follow the SMILES beside them.

Key:
P. aeruginosa ATCC 27853 = assay: Neutropenic mouse bloodstream infection model; format: in vivo; settings: single IV dose 4 mg/kg
How it was run: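 Female Swiss mice made neutropenic with cyclophosphamide (150 mg/kg day −4, 100 mg/kg day −1), infected IV with 50 µL of 4 × 10^8 CFU/mL. Lipopeptide 4 mg/kg (free base) IV at 2 h post-inoculation, n = 3. Efficacy = Δlog10 CFU/mL blood versus saline at 4 h post-dose.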

[1] = tested on: K. pneumoniae FADDI-KP032; format: cell-based, Klebsiella pneumoniae; settings: FADDI-KP032
How it was run: (§1)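 Each strain is tested in cation-adjusted Mueller–Hinton broth using the micro-dilution technique, and growth inhibition gives the MIC.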

[2] = tested on: K. pneumoniae FADDI-KP065; format: cell-based, Klebsiella pneumoniae; settings: FADDI-KP065
How it was run: as §1

[3] = tested on: MDR clinical isolates of Enterobacterales (n = 177, 152 carbapenem-resistant); assay: Extended MIC screening, MDR clinical isolates; format: cell-based
Description: MICs were determined in cation-adjusted Mueller–Hinton broth (CaMHB) by the broth micro-dilution method against ATCC strains and clinical isolates. MICs in the presence of Survanta® were determined as described above against P. aeruginosa ATCC 27853. In the 100 μL of fresh CaMHB containing polymyxins, 10% Survanta® (v/v, 2.5 mg/mL phospholipids) was added. MICs in the presence and absence of Survanta® were compared to determine the effect of binding to lung surfactant on the antibacterial activity of polymyxins.

A. baumannii AB5075 = assay: Transcriptomic analysis (RNA-Seq) of bacteria; format: cell-based, Acinetobacter baumannii; settings: for logFC (Differential gene expression for all genes), Geneid ABUW_RS00005 / logFC (Differential gene expression for all genes), Geneid ABUW_RS00020 / logFC (Fold change), gene ABUW_RS00010 / logFC (Fold change), gene ABUW_RS00030 / logFC (Fold change), gene ABUW_RS00035 / logFC (Fold change), gene recF (ABUW_RS00015) / 4h_1h logFC (Differential gene expression for all genes), Geneid ABUW_RS00005 / 4h_1h logFC (Differential gene expression for all genes), Geneid ABUW_RS00010 / 4h_1h logFC (Differential gene expression for all genes), Geneid ABUW_RS00015 / 4h_1h logFC (Differential gene expression for all genes), Geneid ABUW_RS00020: RNA-Seq A. baumannii AB5075; for log2FC, gene ABUW_RS01945 (acyl-CoA thioesterase II) / log2FC, gene ABUW_RS02545 (acyl-CoA thioesterase) / log2FC, gene ABUW_RS05045 (acyl-CoA thioesterase) / log2FC, gene ABUW_RS17575 (acyl-CoA thioesterase): pathway Fatty Acid and Lipid Degradation; for 4h_1h logFC (Differential gene expression for all genes), Geneid ABUW_RS00005 / 4h_1h logFC (Differential gene expression for all genes), Geneid ABUW_RS00010 / 4h_1h logFC (Differential gene expression for all genes), Geneid ABUW_RS00015 / 4h_1h logFC (Differential gene expression for all genes), Geneid ABUW_RS00020: 4h vs 1h
Description: Mid-log phase A. baumannii AB5075 (~10^8 CFU/mL) in CaMHB was treated with colistin (2 and 8 μg/mL), F287, F319 or F365 (equimolar concentration to colistin) for 1 and 4 h. Total RNA was extracted using TRIzol Reagent (Invitrogen, USA) and RNeasy Mini Kit (Qiagen, Germany). Quality check of RNA samples was conducted with NanoDrop (Thermo Fisher Scientific, USA) and Agilent 2100 Bioanalyzer (Agilent Technologies, USA) for sequencing (150 bp paired-end) at Genewiz (Shanghai, China). Raw reads were aligned to A. baumannii AB5075 genome (GCF_000963815, https://www.ncbi.nlm.nih.gov/assembly/GCF_000963815.1/) using subread-aligner (subread 2.0.1) and summarized by featureCounts (subread 2.0.1). Principal component analysis (PCA) was conducted with mixOmics 6.14.1 in R. Differentially expressed genes were determined using limma 3.46.0 with a combination of fold change ≥ 2 and false discovery rate (FDR, by Benjamini–Hochberg algorithm) adjusted P-value ≤ 0.05 (n = 3). Enrichment analysis of gene differential expression in AB5075 was conducted using BioCyc (A. baumannii AB5075, version 25.5). UpSetR 1.4.0, ComplexHeatmap 2.6.2 and circlize 0.4.13 were used for data visualization. Raw data were deposited in Short Reads Archive (SRA) database under accession numbers SRR15235669-SRR15235725.

`CCCCCCCC(=O)N[C@@H](CCN)C(=O)N[C@H](C(=O)N[C@@H](CN)C(=O)N[C@H]1CCNC(=O)[C@H]([C@@H](C)O)NC(=O)[C@H](CCN)NC(=O)[C@H](CCN)NC(=O)[C@H](CC)NC(=O)[C@@H](CC(C)C)NC(=O)[C@H](CCN)NC1=O)[C@@H](C)O` [Lipopeptide F287] (HELM PEPTIDE1{[CCCCCCCC(=O)[*:2]].[Dab].T.[NC[C@H](N[*:1])C(=O)[*:2]].[Dab].[Dab].[dL].[Abu].[Dab].[Dab].T}$PEPTIDE1,PEPTIDE1,5:R3-11:R2$$$V2.0) was tested, and the “Log10 CFU/mL blood at 4 h, Mean” value (P. aeruginosa ATCC 27853; 4 h) was 5.02 Log10 CFU/mL blood, the “Δlog10 CFU/mL blood (mean)” value (P. aeruginosa ATCC 27853; 4 h, treated minus control, mean of replicates, 4 mg/kg) was −2.42 log10 CFU/mL blood and the “Log10 CFU/mL blood at 4 h, single mouse” value (P. aeruginosa ATCC 27853; 4 h, 4 mg/kg) was 5.21 Log10 CFU/mL blood and 4.68 Log10 CFU/mL blood and 5.18 Log10 CFU/mL blood. For the same molecule, the “Delta Log10 CFU/mL blood at 4 h, single mouse” value (P. aeruginosa ATCC 27853; treated mouse minus mean of vehicle mice, 4 mg/kg) was -2.23 Log10 CFU/mL blood and -2.77 Log10 CFU/mL blood and -2.27 Log10 CFU/mL blood, the “MIC K. pneumoniae FADDI-KP032” value [1] was under 0.125 µg/mL and the “MIC K. pneumoniae FADDI-KP065” value [2] was under 0.125 µg/mL. It also gave a Number of isolates ([3]; isolates with MIC 0.05 µg/mL) of 0, a Number of isolates ([3]; isolates with MIC 0.125 µg/mL) of 0 and a Number of isolates ([3]; isolates with MIC 0.25 µg/mL) of 17. For the same molecule, the Number of isolates ([3]; isolates with MIC 0.5 µg/mL) was 131, the Number of isolates ([3]; isolates with MIC 1 µg/mL) was 5 and the Number of isolates ([3]; isolates with MIC 2 µg/mL) was 2. For the same molecule, the Number of isolates ([3]; isolates with MIC 4 µg/mL) was 1, the Number of isolates ([3]; isolates with MIC 8 µg/mL) was 2 and the Number of isolates ([3]; isolates with MIC 16 µg/mL) was 5. It also gave a Number of isolates ([3]; isolates with MIC 32 µg/mL) of 7, a Number of isolates ([3]; isolates with MIC 64 µg/mL) of 3 and a Number of isolates ([3]; isolates with MIC >64 µg/mL) of 4. The “logFC (Differential gene expression for all genes), Geneid ABUW_RS00005” value (A. baumannii AB5075; H vs Cont, 1h) was -0.2237, the “logFC (Differential gene expression for all genes), Geneid ABUW_RS00020” value (A. baumannii AB5075; H vs Cont, 1h) was 0.4813 and the “logFC (Fold change), gene ABUW_RS00010” value (A. baumannii AB5075; H vs Cont, 1h) was 0.6329. For the same molecule, the “logFC (Fold change), gene ABUW_RS00030” value (A. baumannii AB5075; H vs Cont, 1h) was -0.7589, the “logFC (Fold change), gene ABUW_RS00035” value (A. baumannii AB5075; H vs Cont, 1h) was 1.171 and the “logFC (Fold change), gene recF (ABUW_RS00015)” value (shortened to “logFC (Fold change), gene recF”) (A. baumannii AB5075; H vs Cont, 1h) was 0.0004857. For the same molecule, the “log2FC, gene ABUW_RS01945 (acyl-CoA thioesterase II)” value (from here on “log2FC, gene ABUW_RS01945”) (A. baumannii AB5075; H vs Cont, 1h) was 0.3471, the “log2FC, gene ABUW_RS02545 (acyl-CoA thioesterase)” value (“log2FC, gene ABUW_RS02545” below) (A. baumannii AB5075; H vs Cont, 1h) was 1.413 and the “log2FC, gene ABUW_RS05045 (acyl-CoA thioesterase)” value (“log2FC, gene ABUW_RS05045” below) (A. baumannii AB5075; H vs Cont, 1h) was 0.6077. For the same molecule, the “log2FC, gene ABUW_RS17575 (acyl-CoA thioesterase)” value (“log2FC, gene ABUW_RS17575” below) (A. baumannii AB5075; H vs Cont, 1h) was -1.9504, the “logFC (Differential gene expression for all genes), Geneid ABUW_RS00005” value (A. baumannii AB5075; H vs Cont, 4h) was -0.2595 and the “logFC (Differential gene expression for all genes), Geneid ABUW_RS00020” value (A. baumannii AB5075; H vs Cont, 4h) was 0.07692. The “logFC (Fold change), gene ABUW_RS00010” value (A. baumannii AB5075; H vs Cont, 4h) was 1.124, the “logFC (Fold change), gene ABUW_RS00030” value (A. baumannii AB5075; H vs Cont, 4h) was -1.151 and the “logFC (Fold change), gene ABUW_RS00035” value (A. baumannii AB5075; H vs Cont, 4h) was 1.24. For the same molecule, the “logFC (Fold change), gene recF” value (A. baumannii AB5075; H vs Cont, 4h) was -1.077, the “log2FC, gene ABUW_RS01945” value (A. baumannii AB5075; H vs Cont, 4h) was -0.6425 and the “log2FC, gene ABUW_RS02545” value (A. baumannii AB5075; H vs Cont, 4h) was 1.263. The “log2FC, gene ABUW_RS05045” value (A. baumannii AB5075; H vs Cont, 4h) was 0.8039, the “log2FC, gene ABUW_RS17575” value (A. baumannii AB5075; H vs Cont, 4h) was -1.276 and the “4h_1h logFC (Differential gene expression for all genes), Geneid ABUW_RS00005” value (A. baumannii AB5075; H) was -0.6471. The “4h_1h logFC (Differential gene expression for all genes), Geneid ABUW_RS00010” value (A. baumannii AB5075; H) was 0.4305, the “4h_1h logFC (Differential gene expression for all genes), Geneid ABUW_RS00015” value (A. baumannii AB5075; H) was -1.349 and the “4h_1h logFC (Differential gene expression for all genes), Geneid ABUW_RS00020” value (A. baumannii AB5075; H) was 0.3991. The “logFC (Differential gene expression for all genes), Geneid ABUW_RS00005” value (A. baumannii AB5075; L vs Cont, 1h) was 0.09601, the “logFC (Differential gene expression for all genes), Geneid ABUW_RS00020” value (A. baumannii AB5075; L vs Cont, 1h) was 0.1731 and the “logFC (Fold change), gene ABUW_RS00010” value (A. baumannii AB5075; L vs Cont, 1h) was 0.3235. The “logFC (Fold change), gene ABUW_RS00030” value (A. baumannii AB5075; L vs Cont, 1h) was -0.01757, the “logFC (Fold change), gene ABUW_RS00035” value (A. baumannii AB5075; L vs Cont, 1h) was 0.2853 and the “logFC (Fold change), gene recF” value (A. baumannii AB5075; L vs Cont, 1h) was 0.06622. For the same molecule, the “log2FC, gene ABUW_RS01945” value (A. baumannii AB5075; L vs Cont, 1h) was 0.394, the “log2FC, gene ABUW_RS02545” value (A. baumannii AB5075; L vs Cont, 1h) was 0.4759 and the “log2FC, gene ABUW_RS05045” value (A. baumannii AB5075; L vs Cont, 1h) was -0.04078. The “log2FC, gene ABUW_RS17575” value (A. baumannii AB5075; L vs Cont, 1h) was 0.9551, the “logFC (Differential gene expression for all genes), Geneid ABUW_RS00005” value (A. baumannii AB5075; L vs Cont, 4h) was 0.1326 and the “logFC (Differential gene expression for all genes), Geneid ABUW_RS00020” value (A. baumannii AB5075; L vs Cont, 4h) was -0.2281. For the same molecule, the “logFC (Fold change), gene ABUW_RS00010” value (A. baumannii AB5075; L vs Cont, 4h) was 0.09364, the “logFC (Fold change), gene ABUW_RS00030” value (A. baumannii AB5075; L vs Cont, 4h) was 0.3636 and the “logFC (Fold change), gene ABUW_RS00035” value (A. baumannii AB5075; L vs Cont, 4h) was 0.2169. For the same molecule, the “logFC (Fold change), gene recF” value (A. baumannii AB5075; L vs Cont, 4h) was 0.1608, the “log2FC, gene ABUW_RS01945” value (A. baumannii AB5075; L vs Cont, 4h) was -0.1224 and the “log2FC, gene ABUW_RS02545” value (A. baumannii AB5075; L vs Cont, 4h) was -0.4528. For the same molecule, the “log2FC, gene ABUW_RS05045” value (A. baumannii AB5075; L vs Cont, 4h) was 0.3557, the “log2FC, gene ABUW_RS17575” value (A. baumannii AB5075; L vs Cont, 4h) was -0.4747 and the “4h_1h logFC (Differential gene expression for all genes), Geneid ABUW_RS00005” value (A. baumannii AB5075; L) was -0.01752. The “4h_1h logFC (Differential gene expression for all genes), Geneid ABUW_RS00010” value (A. baumannii AB5075; L) was -0.721, the “4h_1h logFC (Differential gene expression for all genes), Geneid ABUW_RS00015” value (A. baumannii AB5075; L) was 0.1845 and the “4h_1h logFC (Differential gene expression for all genes), Geneid ABUW_RS00020” value (A. baumannii AB5075; L) was -0.0476.
